Experimental data as given in patent publication US11155517B2, “4-substituted phenylamine derivatives and their use to protect crops by fighting undesired phytopathogenic micoorganisms” (PI INDUSTRIES LTD., priority 2016, dated 2021).

Key:
Format in all cases: cell-based
[1] = tested on: Colletotrichum capsici; assay: Colletotrichum capsici (anthracnose) in vitro test, radial growth on Potato Dextrose Agar; conditions: Colletotrichum truncatum, 168 h; 300 ppm; seven days, 25° C.; read-out: % control compared to the untreated check (radial growth)
[2] = tested on: Alternaria solani; assay: Alternaria solani (early blight of tomato/potato) in vitro test, radial growth on Potato Dextrose Agar; conditions: 168 h, 300 ppm, seven days, 25° C., read-out: % control compared to the untreated check (radial growth)
[3] = tested on: Pyricularia oryzae; assay: microbe, parasite or virus in culture; conditions: 168 h, read-out: % control compared to the untreated check (radial growth)
[4] = tested on: Botrytis cinerea; assay: Botrytis cinerea (gray mold) in vitro test, radial growth on Potato Dextrose Agar; conditions: 168 h, 300 ppm, seven days, 22° C., read-out: % (control) compared to the untreated check (radial growth)
[5] = tested on: Septoria lycopersici; assay: Septoria lycopersici (leaf spot of tomato) in vitro test, radial growth on Potato Dextrose Agar; conditions: 168 h, seven days, 25° C., read-out: % control compared to the untreated check (radial growth)
[6] = tested on: Rhizoctonia solani; assay: Rhizoctonia solani (rice sheath blight/potato black scurf) in vitro test, radial growth on Potato Dextrose Agar; conditions: 168 h, 300 ppm, seven days, 25° C., read-out: % control compared to the untreated check (radial growth)
[7] = tested on: Fusarium culmorum; assay: Fusarium culmorum (foot rot of cereals) in vitro test, radial growth on Potato Dextrose Agar; conditions: 300 ppm; seven days, 25° C.

Compound	inhibition of growth at 300 ppm [1]	inhibition of growth at 300 ppm [2]	inhibition of growth at 300 ppm [3]	inhibition of growth at 300 ppm [4]	inhibition of growth at 300 ppm [5]	inhibition of growth at 300 ppm [6]	% control compared to the untreated check (radial growth) [7]
CCN(C)C=Nc1cc(C)c(Cc2c(Cl)cccc2Cl)cc1Cl [Compound 195, N′-(2-chloro-4-(2,6-dichlorobenzyl)-5-methylphenyl)-N-ethyl-N-methylformimidamide]	> 80%	> 75%	> 75%	> 80%	> 70%		
CCN(C)C=Nc1cc(C)c(Cc2cc(C)cc(C)c2)cc1Cl [Compound 130, N′-(2-chloro-4-(3,5-dimethylbenzyl)-5-methylphenyl)-N-ethyl-N-methylformimidamide]	> 80%	> 75%	> 75%	> 80%	> 70%	> 80%	
CCN(C)C=Nc1cc(C)c(Cc2cc(C(F)(F)F)ccc2Cl)cc1Cl [Compound 168, N′-(2-chloro-4-(2-chloro-5-(trifluoromethyl)benzyl)-5-methylphenyl)-N-ethyl-N-methylformimidamide]	> 80%	> 75%	> 75%	> 80%	> 70%	> 80%	
CCN(C)C=Nc1cc(F)c(Cc2cccc(Cl)c2)cc1F [Compound 243, N′-(4-(3-chlorobenzyl)-2,5-difluorophenyl)-N-ethyl-N-methylformimidamide]	> 80%	> 75%	> 75%		> 70%	> 80%	
CCN(C)C=Nc1ccc(Cc2ccccc2Cl)cc1 [Compound 164, N′-(4-(2-chlorobenzyl)phenyl)-N-ethyl-N-methylformimidamide]	> 80%	> 75%	> 75%	> 80%	> 70%	> 80%	
CCN(C)C=Nc1cc(C)c(Cc2ccccc2OC(F)(F)F)cc1C [Compound 116, N′-(2,5-dimethyl-4-(2-(trifluoromethoxy)benzyl)phenyl)-N-ethyl-N-methylformimidamide]	> 80%	> 75%	> 75%	> 80%	> 70%	> 80%	
CCN(C)C=Nc1cc(F)c(Cc2ccc(C)cc2)cc1F [Compound 245, N′-(2,5-difluoro-4-(4-methylbenzyl)phenyl)-N-ethyl-N-methylformimidamide]	> 80%	> 75%	> 75%	> 80%	> 70%	> 80%	
CCN(C)C=Nc1cc(Cl)c(Cc2ccccc2Cl)cc1C [Compound 255, N′-(5-chloro-4-(2-chlorobenzyl)-2-methylphenyl)-N-ethyl-N-methylformimidamide]	> 80%	> 75%	> 75%	> 80%	> 70%	> 80%	
CCN(C)C=Nc1ccc(Cc2ccccc2F)cc1 [Compound 163, N-ethyl-N′(4-(2-fluorobenzyl)phenyl)-N-methylformimidamide]	> 80%	> 75%	> 75%	> 80%	> 70%	> 80%	
CCN(C)C=Nc1cc(C)c(Cc2ccc(Cl)c(OC(F)(F)F)c2)cc1Cl [Compound 177, N′-(2-chloro-4-(4-chloro-3-(trifluoromethoxy)benzyl)-5-methylphenyl)-N-ethyl-N-methylformimidamide]	> 80%	> 75%	> 75%	> 80%	> 70%	> 80%	
CCN(C)C=Nc1cc(C)c(Cc2ccc(C)cc2)cc1F [Compound 211, N-ethyl-N-(2-fluoro-5-methyl-4-(4-methylbenzyl)phenyl)-N-methylformimidamide]							75%
Cc1cc(N=CN2CCCCC2)c(C)cc1Cc1cccc(Br)c1F [Compound 37, N-(4-(3-bromo-2-fluorobenzyl)-2,5-dimethylphenyl)-1-(piperidin-1-yl)methanimine]	> 80%	> 75%	> 75%	> 80%	> 70%	> 80%	
CCN(C)C=Nc1cc(C#N)c(Cc2ccccc2C)cc1C [Compound 248, N′-(5-cyano-2-methyl-4-(2-methylbenzyl)phenyl)-N-ethyl-N-methylformimidamide]		> 75%	> 75%	> 80%	> 70%	> 80%	
Cc1cc(N=CN2CCOCC2)c(C)cc1Cc1ccc(F)c(Cl)c1 [Compound 34, N-(4-(3-chloro-4-fluorobenzyl)-2,5-dimethylphenyl)-1-morpholinomethanimine]	> 80%	> 75%	> 75%		> 70%	> 80%	
CCN(C)C=Nc1cc(C#N)c(Cc2ccccc2Cl)cc1C [Compound 246, N′-(4-(2-chlorobenzyl)-5-cyano-2-methylphenyl)-N-ethyl-N-methylformimidamide]	> 80%	> 75%	> 75%	> 80%	> 70%	> 80%	
CCN(C)C=Nc1cc(F)c(Cc2ccccc2C)cc1F [Compound 254, N′-(2,5-difluoro-4-(2-methylbenzyl)phenyl)-N-ethyl-N-methylformimidamide]	> 80%	> 75%	> 75%	> 80%	> 70%	> 80%	
CCN(C)C=Nc1cc(C)c(Cc2cc(C(F)(F)F)cc(Cl)c2F)cc1C [Compound 134, N′-(4-(3-chloro-2-fluoro-5-(trifluoromethyl)benzyl)-2,5-dimethylphenyl)-N-ethyl-N-methylformimidamide]	> 80%	> 75%	> 75%	> 80%	> 70%	> 80%	
CCN(C)C=Nc1cc(C)c(Cc2cccc(F)c2Cl)cc1C [Compound 131, N′-(4-(2-chloro-3-fluorobenzyl)-2,5-dimethylphenyl)-N-ethyl-N-methylformimidamide]	> 80%	> 75%	> 75%	> 80%	> 70%	> 80%	
CCN(C)C=Nc1cc(C)c(Cc2cccc(C)c2C)cc1Cl [Compound 170, N-(2-chloro-4-(2,3-dimethylbenzyl)-5-methylphenyl)-N-ethyl-N-methylformimidamide]							75%
CCN(C)C=Nc1cc(C)c(Cc2ccc(Cl)c(Cl)c2)cc1Cl [Compound 20, N′-(2-chloro-4-(3,4-dichlorobenzyl)-5-methylphenyl)-N-ethyl-N-methylformimidamide]	> 80%	> 75%	> 75%		> 70%	> 80%	
CCN(C)C=Nc1ccc(Cc2ccccc2Cl)c2ccccc12 [Compound 270, N′-(4-(2-chlorobenzyl)naphthalen-1-yl)-N-ethyl-N-methylformimidamide]	> 80%	> 75%	> 75%	> 80%	> 70%	> 80%	
CCN(C)C=Nc1cc(C)c(Cc2cc(C(F)(F)F)cc(C(F)(F)F)c2)cc1C [Compound 106, N′-(4-(3,5-bis(trifluoromethyl)benzyl)-2,5-dimethylphenyl)-N-ethyl-N-methylformimidamide]	> 80%	> 75%	> 75%	> 80%	> 70%	> 80%	
CCN(C)C=Nc1cc(F)c(Cc2cccc(C)c2)cc1F [Compound 244, N′-(2,5-difluoro-4-(3-methylbenzyl)phenyl)-N-ethyl-N-methylformimidamide]		> 75%	> 75%	> 80%	> 70%	> 80%	
Cc1cc(N=CN2CCSCC2)c(C)cc1Cc1ccccc1Cl [Compound 86, N-(4-(2-chlorobenzyl)-2,5-dimethylphenyl)-1-thiomorpholinomethanimine]	> 80%	> 75%	> 75%	> 80%	> 70%	> 80%	
